Assay results as given in ChEMBL document CHEMBL1135956 (Bioorg Med Chem Lett, 2002).

Key:
[1] = target: T1, Glucagon receptor (Homo sapiens, UniProt P47871); assay: Binding affinity of second diastereomer (D2) against human glucagon receptor was determined
[2] = target: T1, Glucagon receptor; assay: Binding affinity of second enantiomer (E2) against human glucagon receptor was determined
[3] = target: T1, Glucagon receptor; assay: Binding affinity of first enantiomer (E1) against human glucagon receptor was determined
[4] = target: T1, Glucagon receptor; assay: Binding affinity of first diastereomer (D1) against human glucagon receptor was determined
[5] = Compound was evaluated for the functional activity by the inhibition of cAMP production

T1 sequence (P47871 whole entry): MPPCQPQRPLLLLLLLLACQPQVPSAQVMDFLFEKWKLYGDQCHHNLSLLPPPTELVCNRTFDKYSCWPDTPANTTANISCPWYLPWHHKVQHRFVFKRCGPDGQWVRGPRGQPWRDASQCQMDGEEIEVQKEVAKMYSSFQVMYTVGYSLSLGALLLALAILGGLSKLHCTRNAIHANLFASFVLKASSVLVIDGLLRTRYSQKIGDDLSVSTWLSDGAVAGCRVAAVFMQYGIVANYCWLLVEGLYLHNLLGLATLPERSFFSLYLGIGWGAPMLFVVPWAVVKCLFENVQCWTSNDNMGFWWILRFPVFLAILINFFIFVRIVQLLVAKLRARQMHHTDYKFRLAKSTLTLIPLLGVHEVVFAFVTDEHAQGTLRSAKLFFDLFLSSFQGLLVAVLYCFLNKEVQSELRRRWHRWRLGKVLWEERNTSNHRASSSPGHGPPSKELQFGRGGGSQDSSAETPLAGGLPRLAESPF

Structure (SMILES) | IC50 [1] | IC50 [2] | IC50 [3] | IC50 [4] | IC50 [5]
CCc1c(C(C)C)nc(C(C)C)c(C(C)O)c1-c1ccc(F)cc1O (centres undefined) | 2000 nM | 16 nM | 5000 nM | 20 nM | 
CCCCc1c(C(C)C)nc(C(C)C)c(C(C)O)c1-c1ccc(F)cc1O (centres undefined) | 1000 nM |  |  | 28 nM | 
CCCc1c(C(C)C)nc(C(C)C)c(C(C)O)c1-c1ccccc1O (centres undefined) | 1100 nM | 25 nM | 190 nM | 40 nM | 
CCCc1c(C(C)C)nc(C(C)C)c(C(C)O)c1-c1ccc(F)cc1O (centres undefined) | 1000 nM | 10 nM | 8000 nM | 18 nM | 6.5 nM
CCCCCc1c(C(C)C)nc(C(C)C)c(C(C)O)c1-c1ccc(F)cc1O (centres undefined) | 2200 nM | 12 nM | 8000 nM | 30 nM | 
